Assay results taken from ChEMBL document CHEMBL1201862, “PubChem BioAssay data set” (2004).
Active and inactive are the calls of the source.

Assays:
cells = type: functional
[1] = target: T1, Replicative DNA helicase DnaB (Mycobacterium tuberculosis, UniProt P9WMR3); experiment: DnaB intein splicing inhibitors, dose response, biochemical, cell-free fluorescence (AID 449749); type: functional
T1 sequence (P9WMR3 whole entry): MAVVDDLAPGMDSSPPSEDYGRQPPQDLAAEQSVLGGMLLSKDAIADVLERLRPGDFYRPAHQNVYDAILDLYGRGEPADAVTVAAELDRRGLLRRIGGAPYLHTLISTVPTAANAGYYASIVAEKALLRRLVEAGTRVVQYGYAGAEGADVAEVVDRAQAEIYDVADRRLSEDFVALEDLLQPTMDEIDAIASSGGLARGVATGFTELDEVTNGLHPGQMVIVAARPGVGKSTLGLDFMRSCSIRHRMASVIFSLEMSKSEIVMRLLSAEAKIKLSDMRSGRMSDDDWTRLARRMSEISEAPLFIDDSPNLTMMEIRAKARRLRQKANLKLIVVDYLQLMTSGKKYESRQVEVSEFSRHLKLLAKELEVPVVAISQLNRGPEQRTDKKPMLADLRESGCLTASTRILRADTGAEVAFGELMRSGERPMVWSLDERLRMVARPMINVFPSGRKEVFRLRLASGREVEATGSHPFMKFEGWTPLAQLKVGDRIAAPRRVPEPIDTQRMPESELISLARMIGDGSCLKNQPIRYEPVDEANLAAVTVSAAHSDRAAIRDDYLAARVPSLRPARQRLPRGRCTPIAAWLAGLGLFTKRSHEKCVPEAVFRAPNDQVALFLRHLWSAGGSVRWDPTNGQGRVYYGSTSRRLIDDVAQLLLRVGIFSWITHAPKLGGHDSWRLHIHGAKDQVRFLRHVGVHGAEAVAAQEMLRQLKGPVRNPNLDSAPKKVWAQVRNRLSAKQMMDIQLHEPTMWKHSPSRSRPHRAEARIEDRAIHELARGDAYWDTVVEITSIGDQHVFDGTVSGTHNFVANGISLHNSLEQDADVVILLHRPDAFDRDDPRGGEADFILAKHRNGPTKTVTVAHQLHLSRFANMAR

[2] = HepG2 cell cytotoxicity, dose response, cytotoxicity control for non-replicating M. tuberculosis project (AID 489018); type: functional; details: Mycobacterium tuberculosis
[3] = Trypanosoma cruzi growth suppression in host cells – NIH3T3 host cells, beta-gal luminescence, confirmation (AID 2044); type: functional, cell-based;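 also: intracellular parasites grown in NIH/3T3 mouse fibroblasts as host cells; luminescent beta-galactosidase reporter signal from transgenic T. cruzi replicating inside host cells; inhibitors lower the luminescence signal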
[4] = THP-1 cell cytotoxicity, dose response, cytotoxicity control for non-replicating M. tuberculosis project (AID 489025); type: functional
[5] = Vero E6 cell cytotoxicity, dose response, cytotoxicity control for non-replicating M. tuberculosis project, secondary assay (AID 492998); type: functional, VeroE6; details: Vero C1008
Beta Lactamase = Beta Lactamase (Pseudomonas aeruginosa, UniProt Q932Y6); experiment: BLA reporter interference, concentration series – BLA reporter cells, FRET fluorescence, artefact control for TLR9-MyD88 binding inhibitor project, dose response (AID 588341); type: cell-based;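 also: cell based assay in CHO-K1 cells stably expressing beta-lactamase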
Chain of Beta Lactamase (Q932Y6 whole entry): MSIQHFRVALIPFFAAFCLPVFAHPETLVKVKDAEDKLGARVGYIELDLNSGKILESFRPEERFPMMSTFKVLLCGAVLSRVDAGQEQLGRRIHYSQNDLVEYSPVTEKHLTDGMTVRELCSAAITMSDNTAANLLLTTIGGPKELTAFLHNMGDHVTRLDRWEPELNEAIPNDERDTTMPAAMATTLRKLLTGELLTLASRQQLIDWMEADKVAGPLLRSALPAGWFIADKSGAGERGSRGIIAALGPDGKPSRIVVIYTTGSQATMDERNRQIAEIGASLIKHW

HeLa = experiment: Cytotoxicity counterscreen assay for transcriptional activators of heat shock protein 70 (Hsp70). [Related pubchem assays: 1203, 1252 ]; type: functional; details: Homo sapiens;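 also: cells exposed to compound for 16 hours before readout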
[6] = target: T2, Sphingosine 1-phosphate receptor 4 (Homo sapiens, UniProt O95977); experiment: Fluorescence dose response cell-based high throughput screening assay for antagonists of the Sphingosine 1-Phosphate Receptor 4 (S1P4). [Related pubchem assays: 1524 (Confirmation in triplicates.), 1510 (Primary screen.)]; type: functional
T2 sequence (O95977 whole entry): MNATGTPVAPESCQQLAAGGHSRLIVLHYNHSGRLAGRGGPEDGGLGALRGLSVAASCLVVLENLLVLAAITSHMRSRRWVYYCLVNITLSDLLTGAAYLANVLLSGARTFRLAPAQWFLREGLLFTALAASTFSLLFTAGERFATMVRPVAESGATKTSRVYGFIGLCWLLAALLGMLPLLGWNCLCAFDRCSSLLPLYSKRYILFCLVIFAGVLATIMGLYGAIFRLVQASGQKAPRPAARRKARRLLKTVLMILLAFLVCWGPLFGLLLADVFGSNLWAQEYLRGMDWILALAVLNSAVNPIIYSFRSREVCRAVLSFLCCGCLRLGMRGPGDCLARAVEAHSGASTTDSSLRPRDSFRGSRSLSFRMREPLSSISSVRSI

[7] = target: Heat shock protein HSP 90-alpha (Homo sapiens, UniProt P07900); type: functional, organism-based
CHO = CHO cell viability loss, potency – luminescence, cytotoxicity control for TLR9-MyD88 binding inhibitor project, dose response (AID 588339); type: functional, cell-based, hamster; details: Cricetulus griseus;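 also: CHO cells stably coexpressing TLR9 and MyD88 fusions from primary screen; compound exposure lasted 48 hours before viability readout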
[8] = target: Sphingosine 1-phosphate receptor 1 (Homo sapiens, UniProt P21453); type: functional;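 also: Tango beta-arrestin reporter U2OS cells stimulated with S1P near its EC80; inhibitor potency meaning antagonism of receptor activation by the natural agonist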
Chain of Sphingosine 1-phosphate receptor 1 (P21453 whole entry): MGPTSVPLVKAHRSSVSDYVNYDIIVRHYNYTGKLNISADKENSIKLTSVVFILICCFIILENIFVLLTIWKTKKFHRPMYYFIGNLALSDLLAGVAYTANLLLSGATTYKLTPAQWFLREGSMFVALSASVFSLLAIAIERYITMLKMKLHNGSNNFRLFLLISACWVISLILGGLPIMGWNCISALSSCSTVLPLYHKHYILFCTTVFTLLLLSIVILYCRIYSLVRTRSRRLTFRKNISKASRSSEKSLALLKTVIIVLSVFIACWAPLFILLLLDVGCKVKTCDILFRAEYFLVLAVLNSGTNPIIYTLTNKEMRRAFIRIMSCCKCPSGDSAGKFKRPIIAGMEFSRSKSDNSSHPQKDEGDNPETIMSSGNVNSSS

INS1 = experiment: INS-1E survival protection against cytokine death – cell-based, luminescence, retest, dose response (AID 449756); type: functional; details: Rattus norvegicus;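 also: cell death triggered by IL-1 beta plus TNF-alpha plus IFN-gamma mixture; protective hits raise ATP signal compared with cytokine alone wells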
[9] = NIH3T3 cell viability loss – ATP luminescence, mouse fibroblasts, counter-screen, dose response (AID 2010); type: functional, cell-based;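 also: cells exposed to compound for about 90 hours before reading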
Protein RecA = target: T3, Protein RecA (Mycobacterium tuberculosis, UniProt P9WHJ3); experiment: Fluorescence Cell-Free Homogeneous Dose Retest to Identify Inhibitors of RecA-Intein Splicing Activity. [Related pubchem assays (depositor defined):AID2097, AID2223, AID489010, AID492950]; type: functional
T3 sequence (P9WHJ3 whole entry): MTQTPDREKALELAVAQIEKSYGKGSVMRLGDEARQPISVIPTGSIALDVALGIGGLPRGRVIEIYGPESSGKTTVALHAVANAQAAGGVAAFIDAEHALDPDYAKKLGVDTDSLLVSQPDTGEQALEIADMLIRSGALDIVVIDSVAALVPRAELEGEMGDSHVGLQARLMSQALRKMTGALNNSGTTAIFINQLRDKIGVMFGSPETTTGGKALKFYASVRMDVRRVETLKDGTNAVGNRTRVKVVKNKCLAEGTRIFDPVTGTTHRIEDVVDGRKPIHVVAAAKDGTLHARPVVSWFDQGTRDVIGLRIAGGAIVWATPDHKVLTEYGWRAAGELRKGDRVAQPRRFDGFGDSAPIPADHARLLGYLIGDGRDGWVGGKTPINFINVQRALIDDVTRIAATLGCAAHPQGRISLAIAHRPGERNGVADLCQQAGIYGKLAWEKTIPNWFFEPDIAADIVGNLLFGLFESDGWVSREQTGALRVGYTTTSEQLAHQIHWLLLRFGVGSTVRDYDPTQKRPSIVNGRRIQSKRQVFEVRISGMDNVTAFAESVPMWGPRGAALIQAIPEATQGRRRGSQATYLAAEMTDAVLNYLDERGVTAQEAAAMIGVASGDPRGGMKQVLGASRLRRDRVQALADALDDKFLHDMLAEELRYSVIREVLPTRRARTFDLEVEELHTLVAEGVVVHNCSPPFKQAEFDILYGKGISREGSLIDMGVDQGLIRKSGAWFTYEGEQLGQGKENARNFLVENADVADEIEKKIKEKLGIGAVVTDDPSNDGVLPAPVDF

NS3 = NS3 (Hepatitis C virus, UniProt A3EZJ3); experiment: PubChem AID 2173; set-up: species or system Hepacivirus hominis
Chain of NS3 (A3EZJ3 whole entry): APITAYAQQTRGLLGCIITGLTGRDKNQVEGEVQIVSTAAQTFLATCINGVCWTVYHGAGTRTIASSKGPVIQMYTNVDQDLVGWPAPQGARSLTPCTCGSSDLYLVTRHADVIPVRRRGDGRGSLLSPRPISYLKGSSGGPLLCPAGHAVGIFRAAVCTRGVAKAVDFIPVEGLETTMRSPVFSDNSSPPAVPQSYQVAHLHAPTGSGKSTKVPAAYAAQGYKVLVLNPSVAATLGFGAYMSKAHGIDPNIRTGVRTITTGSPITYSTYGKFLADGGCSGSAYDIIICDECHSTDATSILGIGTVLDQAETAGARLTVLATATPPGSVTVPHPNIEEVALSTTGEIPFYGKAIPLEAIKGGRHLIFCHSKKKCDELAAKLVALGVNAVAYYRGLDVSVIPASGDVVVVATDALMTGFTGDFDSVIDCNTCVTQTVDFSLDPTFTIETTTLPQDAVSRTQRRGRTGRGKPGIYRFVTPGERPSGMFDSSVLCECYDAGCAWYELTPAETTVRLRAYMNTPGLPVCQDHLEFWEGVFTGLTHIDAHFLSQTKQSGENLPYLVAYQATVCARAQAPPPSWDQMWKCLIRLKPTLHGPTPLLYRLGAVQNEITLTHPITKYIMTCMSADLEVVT

[10] = viability of uninfected HEp-2 cells – cell-based, HTS, cytotoxicity control for RSV inhibitor project, dose response (AID 2410); type: functional; details: human respiratory syncytial virus
[11] = antiviral protection against BTV-induced cell death – arbovirus, BSR cells, confirmation (AID 1250); type: functional;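 also: protection from viral cytopathic effect measured as cell viability by ATP luminescence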
[12] = target: T4, Calpain-2 catalytic subunit (Sus scrofa, UniProt P43367); experiment: m-calpain protease blockers, concentration series – biochemical, fluorogenic peptide substrate, dose response (AID 1420); type: functional
T4 sequence (P43367 whole entry): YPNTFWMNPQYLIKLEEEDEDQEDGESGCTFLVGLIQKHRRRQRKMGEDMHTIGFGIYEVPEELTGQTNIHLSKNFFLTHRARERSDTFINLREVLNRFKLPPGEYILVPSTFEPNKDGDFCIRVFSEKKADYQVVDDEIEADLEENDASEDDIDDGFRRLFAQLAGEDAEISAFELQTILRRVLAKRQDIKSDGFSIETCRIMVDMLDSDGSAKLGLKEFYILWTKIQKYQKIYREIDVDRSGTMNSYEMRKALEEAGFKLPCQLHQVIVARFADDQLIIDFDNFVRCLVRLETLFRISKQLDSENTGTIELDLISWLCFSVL

O=C(OCn1ncc(Br)c(Br)c1=O)c1ccccc1Cl
IC50 (cells): 3.24 µM (active)
AC50 [1]: 2 µM (active)
CC50 [2]: 17.8 µM (active)
EC50 [3]: 2.03 µM (active)
CC50 [4]: 5.77 µM (active)
CC50 [5]: 5.45 µM (active)
IC50 (Beta Lactamase): > 49.8 µM (inactive)
CC50 (HeLa): > 1.22 µM (not active)
IC50 [6]: 1.75 µM (active)
AC50 [7]: 8.37 µM (active)
IC50 (CHO): 1.46 µM (active)
IC50 [8]: 15.3 µM (not active)
AC50 (INS1): 4.76 µM (active)
EC50 [9]: 1.88 µM (active)
EC50 (Protein RecA): 0.472 µM (active)

Cc1cccc(NC2=NC(=O)/C(=C/C=C/c3ccco3)S2)c1C
IC50 (NS3): 5.49 µM (active)
CC50 [10]: 12.1 µM (active)

COc1ccc(C(=O)NCC(C)(C)SCc2c(C)cc(C)cc2C)cc1
IC50 [11]: 24.1 µM (active)
IC50 [12]: > 50 µM (not active)
